Data from publication PMC9757746 (Science Advances, 2022).

Columns and labels:
Format in all cases: biochemical
Cys4 (C. albicans CBS) [1] = molecular target: T1, Cys4 (C. albicans CBS) (Candida albicans, UniProt Q59T95); test: H2S generation, lead acetate, A390; conditions: 10 mM L-cysteine, 10 mM L-homocysteine, 50 μM PLP, 200 mM Na/bicine pH 8.6, 37 °C; 10 min preincubation
T1 sequence (Q59T95 1-496): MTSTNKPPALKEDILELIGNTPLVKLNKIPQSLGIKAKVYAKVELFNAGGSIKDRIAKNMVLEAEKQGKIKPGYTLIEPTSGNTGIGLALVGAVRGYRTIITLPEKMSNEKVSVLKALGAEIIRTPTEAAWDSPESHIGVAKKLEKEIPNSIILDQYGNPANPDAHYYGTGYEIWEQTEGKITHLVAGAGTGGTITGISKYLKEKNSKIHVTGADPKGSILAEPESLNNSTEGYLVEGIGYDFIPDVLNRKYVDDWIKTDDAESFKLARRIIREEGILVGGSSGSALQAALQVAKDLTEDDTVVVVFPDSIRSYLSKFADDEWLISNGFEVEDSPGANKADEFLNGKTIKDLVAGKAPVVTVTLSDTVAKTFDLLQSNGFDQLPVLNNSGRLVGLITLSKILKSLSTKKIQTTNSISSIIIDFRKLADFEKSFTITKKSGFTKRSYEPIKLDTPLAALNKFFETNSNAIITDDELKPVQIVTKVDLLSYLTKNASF

Cys4 (C. albicans CBS) [2] = molecular target: T1, Cys4 (C. albicans CBS); test: H2S generation, lead acetate, A390; conditions: 10 mM L-cysteine, 10 mM L-homocysteine, 50 μM PLP, 200 mM Na/bicine pH 8.6, 37 °C; screening hit
cCBS-cc = molecular target: T2, cCBS-cc (Candida albicans, UniProt Q59T95); test: H2S generation inhibition; conditions: catalytic core
T2 sequence (Q59T95 1-319): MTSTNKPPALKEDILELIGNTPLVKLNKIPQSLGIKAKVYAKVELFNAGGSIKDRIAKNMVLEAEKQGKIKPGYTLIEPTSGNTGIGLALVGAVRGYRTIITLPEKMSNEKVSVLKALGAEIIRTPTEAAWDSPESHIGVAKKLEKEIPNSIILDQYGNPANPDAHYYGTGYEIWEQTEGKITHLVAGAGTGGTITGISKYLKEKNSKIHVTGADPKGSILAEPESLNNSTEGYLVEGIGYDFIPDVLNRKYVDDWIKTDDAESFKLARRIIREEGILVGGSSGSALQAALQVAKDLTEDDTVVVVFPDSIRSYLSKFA

human CBS = molecular target: T3, human CBS (Homo sapiens, UniProt P35520); test: CBS activity inhibition; conditions: weaker inhibition than of fungal CBS
T3 sequence (P35520 1-551): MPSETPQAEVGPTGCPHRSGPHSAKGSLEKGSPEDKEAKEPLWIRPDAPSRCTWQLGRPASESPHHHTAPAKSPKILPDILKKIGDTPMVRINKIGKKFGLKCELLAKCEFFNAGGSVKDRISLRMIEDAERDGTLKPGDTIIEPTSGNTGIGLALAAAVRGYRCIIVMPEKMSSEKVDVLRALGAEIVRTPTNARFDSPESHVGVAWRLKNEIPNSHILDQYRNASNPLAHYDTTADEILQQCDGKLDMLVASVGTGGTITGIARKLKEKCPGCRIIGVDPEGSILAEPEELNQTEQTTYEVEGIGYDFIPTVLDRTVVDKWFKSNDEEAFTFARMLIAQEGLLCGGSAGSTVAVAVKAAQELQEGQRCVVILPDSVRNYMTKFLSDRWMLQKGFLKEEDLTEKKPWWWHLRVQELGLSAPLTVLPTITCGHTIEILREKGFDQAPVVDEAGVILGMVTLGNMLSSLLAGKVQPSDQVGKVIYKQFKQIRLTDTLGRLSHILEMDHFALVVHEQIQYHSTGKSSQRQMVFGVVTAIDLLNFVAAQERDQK

Cys3 (C. albicans CSE) = molecular target: T4, Cys3 (C. albicans CSE) (Candida albicans, UniProt Q5A362); test: CSE activity inhibition; conditions: weaker inhibition than of CBS
T4 sequence (Q5A362 1-399): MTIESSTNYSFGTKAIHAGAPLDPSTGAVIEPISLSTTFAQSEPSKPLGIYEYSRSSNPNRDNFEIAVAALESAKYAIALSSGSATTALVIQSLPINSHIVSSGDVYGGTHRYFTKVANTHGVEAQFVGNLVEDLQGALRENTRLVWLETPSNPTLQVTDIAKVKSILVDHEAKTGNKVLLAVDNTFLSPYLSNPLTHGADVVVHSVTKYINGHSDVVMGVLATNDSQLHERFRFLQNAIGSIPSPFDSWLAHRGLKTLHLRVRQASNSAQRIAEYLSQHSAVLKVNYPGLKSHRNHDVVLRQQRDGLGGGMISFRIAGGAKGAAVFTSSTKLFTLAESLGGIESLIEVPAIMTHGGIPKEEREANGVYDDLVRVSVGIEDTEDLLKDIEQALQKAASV

NOCC(=O)O [Aminooxyacetate]
dose-dependent inhibition (Cys4 (C. albicans CBS) [1]): Dose-dependent inhibition of C. albicans CBS activity by PA and AOA

Cc1cc(O)cc2oc(=O)c3c(O)cc(O)cc3c12 [alternariol]
H2S generation, lead acetate, A390 (Cys4 (C. albicans CBS) [2]): several hits that displayed much better activity than AOA, including PA

C=C1C(=O)O[C@@H](CCCCCCCCCCCCC)[C@@H]1C(=O)O [protolichesterinic acid]
H2S generation inhibition (cCBS-cc): still maintains potent ability to generate H2S and is inhibited by PA (fig. S24) | CBS activity inhibition (human CBS): fungal CBS more potently than human CBS (fig. S19) | CSE activity inhibition (Cys3 (C. albicans CSE)): it inhibited CBS more potently than CSE (fig. S18)

CC(=O)c1c(O)c(C)c(O)c2c1OC1=CC(=O)C(C(C)=O)C(=O)C12C (stereo not drawn) [usnic acid]
H2S generation, lead acetate, A390 (Cys4 (C. albicans CBS) [2]): alternariol, and usnic acid (Fig. 5A and fig. S17)
